Patent US9358243B2, “Pharmaceutical compounds for use in the therapy of Clostridium difficile infection” (ETH Zurich, priority 2011, dated 2016)
pEC50: −log10 of the molar value.

Assays:
[1] = target: T1, His-tagged cysteine protease domain of C. difficile toxin B (Clostridioides difficile, UniProt P18177); assay: Determination of EC50 in presence of 10 mM Ca2+ (cleavage of TcdB cysteine protease domain, SDS-PAGE); type: biochemical, Clostridium difficile; conditions: for cleavage activity at 100 μM: 100 μM compound, 10 mM Ca2+, FIG. 1A; for activity (cleavage of TcdB CPD) in the presence of calcium, compared with IP6: in the presence of calcium (10 mM Ca2+)
T1 construct: cysteine protease domain of C. difficile toxin B
Description: The compound to be tested was added to a recombinant His-tagged cysteine protease domain of C. difficile toxin B of SEQ ID 1 in presence of 10 mM Ca^2+ in 100 mM Tris pH7.4 and incubated for 2 h at 37° C. Cleaved protein fragments were separated by SDS-PAGE and visualized by Coomassie staining. The extent of cleavage quantified from protein band intensities using the ImageJ software package. Signals were normalized to cleavage of positive and negative controls.

[2] = target: T1, His-tagged cysteine protease domain of C. difficile toxin B; assay: Comparison of cleavage kinetics in presence of 10 mM Ca2+; type: biochemical, Clostridium difficile; conditions: 37° C., FIG. 1B
Description: The compound to be tested was added to the His-tagged cysteine protease domain of C. difficile toxin B (same sequence as given above) in presence of 10 mM Ca^2+ in 100 mM Tris pH 7.4 and incubated for 24 h at 37° C., with aliquots removed at regular intervals. Cleaved protein fragments were separated, visualized and analyzed as indicated above.

T1 sequence (P18177 544-799 limits assumed): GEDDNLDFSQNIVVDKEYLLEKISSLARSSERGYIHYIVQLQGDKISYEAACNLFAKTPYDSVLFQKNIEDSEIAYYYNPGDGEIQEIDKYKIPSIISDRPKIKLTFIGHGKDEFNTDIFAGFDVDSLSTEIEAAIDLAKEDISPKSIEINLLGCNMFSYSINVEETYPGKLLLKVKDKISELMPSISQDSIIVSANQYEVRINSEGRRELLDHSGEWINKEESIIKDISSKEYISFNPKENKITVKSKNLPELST

myo-inositol-pentakisphosphate-2-PEG(400) [(7)]
cleavage activity at 100 μM [1]: retains residual activity
activity (cleavage of TcdB CPD) in the presence of calcium, compared with IP6 [1]: improved ability to cleave TcdB CPD
extent of cleavage after 4 h relative to IP6 [2]: 5 fold

O=P(O)(O)O[C@H]1[C@H](OS(=O)(=O)O)[C@@H](OP(=O)(O)O)[C@H](OS(=O)(=O)O)[C@@H](OP(=O)(O)O)[C@H]1OS(=O)(=O)O [PSPSPS]
pEC50 [1]: 4.70

O=S(=O)(O)OC1C(OS(=O)(=O)O)C(OS(=O)(=O)O)C(OS(=O)(=O)O)C(OS(=O)(=O)O)C1OS(=O)(=O)O (stereo not shown) [IS6, inositolhexakissulfate]
activity (cleavage of TcdB CPD) in the presence of calcium, compared with IP6 [1]: much more active than IP6

O=P(O)(O)O[C@H]1[C@H](OP(=O)(O)O)[C@@H](OP(=O)(O)O)[C@H](OP(=O)(O)O)[C@@H](OP(=O)(O)O)[C@H]1OP(=O)(O)O [IP6, myo-inositol hexakisphosphate, reference compound]
pEC50 [1]: 3.22
cleavage activity at 100 μM [1]: disappears almost completely
